Assay results as given in patent US4205077A, “Benzimidazole sulphides as anthelmintic agents” (Ciba-Geigy Corporation, priority 1977, dated 1980).

What was measured:
[1] = Acute toxicity in rabbits; details: rabbit, in vivo, oral
in vivo = details: rat, po
Acute toxicity in rats = details: rat, in vivo, topical or ocular

S=c1[nH]c2cc(Cl)c(Oc3ccc(Cl)cc3Cl)cc2[nH]1 [Example 1/2, 5-chloro-6-(2',4'-dichlorophenoxy)-2H-1,3-dihydro-benzimidazole-2-thione]
LD50 [1]: > 6000 mg/kg | LD50 (in vivo): 3100 mg/kg | LD50 (Acute toxicity in rats): > 3000 mg/kg
